Data from patent publication US6790470B1, “Aspartame derivative crystal and process for producing the same” (Ajinomoto Co., Inc., priority 1998, dated 2004).

Columns and labels:
[1] = Inherent dissolution rate of tabletted dried crystals in ion exchanged water (Test Example 1); assay type: physicochemical; conditions: for amount of crystals dissolved: 300 mg tablet, 300 ml ion exchanged water, 20° C., 200 rpm
Method: Measurement of the Dissolution Rate for the Dried Crystals The dissolution rates of the A-type crystals (Reference Example 2(b)) and the C-type crystals (Example 1) were determined in the following method. That is, 300 mg each of the crystals were introduced into a tabletting mortar (tablet machine) with an internal diameter of 8 mm and a depth of 12 mm, and tabletted at 300 kg/cm2G with “High Pressure Jack J-1 type” (manufactured by Iuchi Seieido) to prepare a sample for measurement of dissolution rate. For measurement of the dissolution rate, the tabletting mortar with only the tabletting face exposed was introduced into 300 ml ion exchanged water kept at 20° C. at a stirring in the number of revolution of 200 rpm, and the inherent dissolution rate was determined using “DISSOLUTION TESTER” (NTR-6100) (manufactured by Toyama Sangyo K. K.).

[2] = Dissolution time, Japanese Pharmacopoeia Paddle method (Test Example 2); assay type: physicochemical; conditions: 0.5 g sample in 900 ml water (20° C.), 100 rpm, end point visually confirmed
Method: Measurement of the Dissolution Rates of the C-type Crystals (Original Powder) and Granules Thereof 0.5 g of the sample was introduced into 900 ml water (20° C.) in a 1-L elution tester (the Japanese Pharmacopoeia, Paddle method, 100 rpm) and its dissolution time was measured (end point was visually confirmed). That is, the C-type crystals (original powder with an average particle size of about 50 μm) obtained in Example 1 above and the granules (particle size of 100 to 500 μm and 500 to 1,400 μm) of C-type crystals obtained in Example 2 above were examined for measurements of their dissolution times in the same manner as described above.

[3] = weight ratio, cited from earlier work

Row | Structure (SMILES) | amount of crystals dissolved ([1]; 30 minutes) | amount of crystals dissolved ([1]; 60 minutes) | amount of crystals dissolved ([1]; 120 minutes) | dissolution rate as compared with the A-type crystals ([1]; comparison with A-type crystals) | dissolution time [2] | efficacy of sweetness relative to Aspartame ([3]; versus Aspartame) | efficacy of sweetness relative to sucrose ([3]; versus sucrose (table sugar))
1 | COC(=O)[C@H](Cc1ccccc1)NC(=O)[C@H](CC(=O)O)NCCC(C)(C)C [A-type crystals, N-[N-(3,3-dimethylbutyl)-L-α-aspartyl]-L-phenylalanine methyl ester, reference compound] | 17 mg | 34 mg | 69 mg |  |  |  | 
2 | COC(=O)[C@H](Cc1ccccc1)NC(=O)[C@H](CC(=O)O)NCCC(C)(C)C [C-type crystals, N-[N-(3,3-dimethylbutyl)-L-α-aspartyl]-L-phenylalanine methyl ester] | 25 mg | 42 mg | 86 mg | significantly improved dissolution rate | 55 min |  | 
3 | COC(=O)[C@H](Cc1ccccc1)NC(=O)[C@H](CC(=O)O)NCCC(C)(C)C [N-(3,3-dimethylbutyl)-APM, N-[N-(3,3-dimethylbutyl)-L-α-aspartyl]-L-phenylalanine methyl ester] |  |  |  |  |  | at least 50 times | about 10,000 times
